Measurements taken from paper PMC9456400 (International Journal of Molecular Sciences, 2022).

Tests used:
[1] = system: Huh-7 cells; assay: UHPLC-ESI-QTOF-MS/MS lipidomics; format: cell-based, human
From the text: We then questioned whether lorlatinib used at concentrations efficacious against ALK-rearranged lung cancer cells but non-toxic to ALK-negative cells could promote substantial lipidome changes in Huh-7 cells (Figure 1B; Table 1). Accordingly, […], and the lipidome was characterized in a semi-targeted approach using a UHPLC-ESI-QTOF-MS/MS method, in which we matched mass spectra with commercial standards (SPLAH mix), databases such as METLIN-PCDL and Lipid MAPS (accessed on 1 July 2022), as well as corroboration of tentative lipid species upon obtaining their MS/MS spectrum. Representative chromatograms of lipidomic analyses in Huh-7 cells can be found in Figure S1.
Lipid extraction, preparation of external calibration curves, and quality control approaches were carried out as described. Samples (2 μL) were injected directly into a 1290 Infinity UHPLC system coupled with a dual Agilent jet stream ESI source to a 6550 QTOF-MS instrument (Agilent Technologies, Santa Clara, CA, USA). UHPLC-ESI-QTOF-MS conditions, data analysis and indirect quantification of selected lipid species using MassHunter Qualitative Analysis B.07.00 software (Agilent Technologies), and corroboration of the tentative characterization of compound match entities using the Lipid Maps database (www.lipidmaps.org, accessed on 1 July 2022) and targeted MS/MS acquisition on LC-QTOF-MS instrument, have been previously described in detail.
Differentially expressed lipid species from untargeted lipidomic data were analyzed by generating volcano plots indicating statistical significance versus magnitude of fold-change for each lipid species (cutoff of Benjamini–Hochberg corrected p-value < 0.05 and log2 fold-change > 1 or […]).

[2] = system: Huh-7 cells; assay: Colorimetric enzymatic quantification of cholesteryl esters and triglycerides; format: cell-based, human; conditions: lorlatinib-treated (1 μmol/L) Huh-7 cells, silibinin 100 μmol/L, 48 h
[3] = system: Huh-7 cells; assay: Oil Red O and LipidTOX staining of neutral lipids; format: cell-based, human; conditions: Huh-7, chronic exposure 7 days; silibinin 10 μmol/L as co-treatment with lorlatinib
Description: We first employed a conventional index of fatty liver disease––the intracellular accumulation of neutral lipids (steatosis)––to confirm the ability of lorlatinib to trigger hypertriglyceridemia and hypercholesteremia.
(§1) For assessment of neutral lipid formation, cells were washed in PBS, fixed with 4% paraformaldehyde for 30 min, washed in distilled water, and then briefly incubated in 60% isopropanol. Following equilibration, cells were stained with a working solution (60%) of Oil Red O for 20 min. An Oil Red O stock solution was prepared by dissolving 0.35% w/v Oil Red O in 100 mL 100% isopropanol. HCS LipidTOX™ Green Neutral Lipid Stain (Invitrogen; Cat. #H34475) was employed as a second staining cocktail for visualization of intracellular neutral lipids. Formaldehyde fixation and preparing/using the labeling solution was carried out as per the manufacturer’s instructions.

[4] = system: HepG2 cells; assay: Oil Red O staining of neutral lipids; format: cell-based, human; conditions: HepG2, acute exposure 48 h; silibinin 100 μmol/L as co-treatment with lorlatinib
Description: To confirm these findings, we employed an independent in vitro model of fatty liver disease involving non-tumorigenic HepG2 cells, which are routinely employed as an inducible fatty liver cell model to screen for therapeutic drugs to eliminate lipid accumulation.
as §1

[5] = system: Huh-7 cells; assay: Toxicity of the combination in long-term confluent Huh-7 cells; format: cell-based, human; conditions: silibinin as high as 100 μmol/L, Huh-7 growing confluent for more than 1 month
From the text: Our multi-faceted approach involving computational modeling, neural network-based prediction models to classify CYP inhibition, and in vitro validation using recombinant human CYP3A4, confirms and further extends the notion that exposure to standard doses of silibinin-containing milk thistle preparations leading to relatively low peak systemic concentrations (1–10 μmol/L) are expected to be accompanied by low-risk for an inhibitory interaction of the first-pass clearance of lorlatinib at the hepatic level.

[6] = standard doses of silibinin-containing milk thistle preparations ref 57; cited from earlier work
[7] = target: recombinant human CYP3A4 (Homo sapiens, UniProt P08684); assay: Vivid CYP450 Red screening assay (BOMR substrate, baculosomes)
Sequence of recombinant human CYP3A4 (P08684 whole entry): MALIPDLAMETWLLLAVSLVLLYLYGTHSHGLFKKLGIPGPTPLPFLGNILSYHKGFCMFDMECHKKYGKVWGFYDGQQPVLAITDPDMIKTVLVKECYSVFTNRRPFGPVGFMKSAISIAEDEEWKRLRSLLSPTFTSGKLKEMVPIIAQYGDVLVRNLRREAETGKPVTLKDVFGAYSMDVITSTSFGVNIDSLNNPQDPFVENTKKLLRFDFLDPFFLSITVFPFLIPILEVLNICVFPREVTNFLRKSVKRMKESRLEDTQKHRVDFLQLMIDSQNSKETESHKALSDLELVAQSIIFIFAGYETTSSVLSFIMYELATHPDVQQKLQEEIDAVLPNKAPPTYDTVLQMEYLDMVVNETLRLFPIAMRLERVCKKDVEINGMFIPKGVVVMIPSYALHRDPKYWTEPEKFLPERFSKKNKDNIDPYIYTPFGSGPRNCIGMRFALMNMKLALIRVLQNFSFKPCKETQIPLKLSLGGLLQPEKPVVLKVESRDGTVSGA
Description: The Vivid® BOMR substrate is a blocked dye that yields a minimal fluorescence signal until metabolized by CYP3A4 into products that are highly fluorescent in aqueous solutions (Figure 5, left panel).
The stringent validation process ensures the highest quality data possible for the 10-point titration, which was performed in duplicate (n = 3). An additional two control wells for each compound concentration tested are conducted to detect autofluorescent compound interference.

For `COc1cc(C2Oc3cc([C@H]4Oc5cc(O)cc(O)c5C(=O)[C@@H]4O)ccc3OC2CO)ccc1O` (some centres unmarked) [silibinin], which “Change of lipid species, single agent” value ([1]; Huh-7, 48 h, lorlatinib 1 μmol/L, silibinin 100 μmol/L) is on record?
Its value is “significantly lowered the baseline abundance of many ChoE species”.

What about the “Effect of co-treatment on lorlatinib-induced rise of lipid species” value ([1]; Huh-7, silibinin 100 μmol/L with lorlatinib 1 μmol/L, 48 h) of the same molecule?
The value was “completely blunted the significant lorlatinib-induced rise in numerous ChoE and TG/DG species”.

What about the “Accumulation of cholesterol esters and triglycerides” value [2] of the same molecule?
Its value is “inhibit the accumulation of cholesterol esters and triglycerides”.

And the “Accumulation of neutral lipids (lipid droplets)” value [3]?
Its value is “notably decreased the quantity and size of the lipid droplets”.

What about the “Accumulation of neutral lipids (lipid droplets)” value [4] of the same molecule?
The value was “markedly fewer and smaller neutral lipid depots”.

And the “Toxic effects of the combination with lorlatinib” value [5]?
Its value is “failed to observed significant toxic effects”.

What about the Peak systemic concentrations [6] of the same molecule?
The Peak systemic concentrations was 1 to 10 µmol/L.

For `CC(C)c1nc(N(C)S(C)(=O)=O)nc(-c2ccc(F)cc2)c1/C=C/[C@@H](O)C[C@@H](O)CC(=O)O` [rosuvastatin], which IC50 [7] is on record?
Its IC50 is greater than 300 µM.
